Measured values as given in patent publication US20220177511A1, “SERIES OF HALOGENATED TETRACYCLIC TRITERPENE DERIVATIVES AND THEIR PREPARATION AND APPLICATION” (SHANGHAI KING-X BIOTECH CO., LTD, priority 2019, published 2022).
≈ marks a conversion by molar mass, not a printed value. Entries after “also recorded” stand apart in the source; their conditions may differ. Where two headings read alike, the source gives them in different places.

What was measured:
[1] = Plasma pharmacokinetics after single intravenous injection in rats; format: in vivo; conditions: rat, intravenous 2 mg/kg, Mean ± SD; for concentration at 0.05 h: read-out: C0.05; for MRT inf: read-out: MRT0-∞; for Vd: read-out: Vz
Protocol: Strain: SD rat; Gender: half male and female. Weight: about 200-250 g. Source: Shanghai Slac Laboratory Animal Co., Ltd. Laboratory Animal Production License No.: SOCK (Shanghai) 2017-0005. Laboratory Animal Use License Certificate number: SYXK (Shanghai) 2014-0018. Breeding: constant temperature purification and ventilation animal room, 20-26° C., free food and water, humidity 40-70%, light for 12 h.
Route B: single intravenous injection. Volume: calculated according to 5 mL/kg body weight. Preparation: an appropriate amount of compound 2 is dissolved in 3% total volume of DMSO. 3% total volume of castor oil is added to the solution and mixed by vortexing, an appropriate amount of normal saline is added to form an intravenous drug solution (0.4 mg/mL clear solution).
12 SD rats were divided into 2 groups, 6 rats in each group, […]. Fasting for 12 h before administration, free drinking water. The doses of 10 mg/kg were administered as a single gavage, and the doses of 2 mg/kg were administered as a single intravenous injection. About 100 μL orbital blood was collected before administration, 3 min, 10 min, 20 min, 30 min, 1 h, 2 h, 3 h, 4 h, 6 h, 8 h, 11 h, and 24 h after administration. For intravenous administration, orbital blood was collected before administration, 3 min, 8 min, 15 min, 30 min, 1 h, 2 h, 3 h, 4 h, 6 h, 8 h, 11 h, 24 h after injection. The blood was anticoagulated with 1% heparin, centrifuged at 8000 rpm for 4 min, and the plasma was separated. Store at −20° C. High concentration samples were diluted with blank plasma. 2.1.4 Determination method of plasma samples 2.1.4.1 Instrument (LC-MS/MS)
Liquid chromatography system: Ultimate3000 liquid chromatography system (including Ultimate3000 ternary infusion pump, Ultimate3000 column oven, Ultimate3000 autosampler and Ultimate3000 vacuum degasser), Dionex Corporation. MS/MS system: 4000 Q-Trap tandem mass spectrometer with electrospray ionization source (ESI source), AB Company
Column: Athena C18-WP 100A (2.1×50 mm, 5 μm); Injection volume: 10 μL; Mobile phase: A: acetonitrile; C: 0.05% ammonia, gradient elution (see table below); Flow rate: 0.3 mL/min
The ion source is electrospray ionization source (ESI), the drying gas (N2) temperature is 500° C., the electrospray voltage is −4500 V, the detection method is negative ion detection, the scanning method is the […] (MRM) method and the scanning time is 0.15 s. The mass spectrometry parameters are as follows:
50 μL of rat whole blood was added with 2.5 μL of internal standard working solution (250 ng/mL tolbutamide). 150 μL of acetonitrile was used to precipitate the proteins. The sample was centrifuged at 13,000 rpm and 4° C. for 5 min. The upper organic phase was taken and filtered with a 0.22 μM microporous membrane, which was then analyzed by LC-MS/MS.

[2] = Solubility test in water and FaSSIF; format: physicochemical; conditions: thermodynamic from solid, 37° C., up to 24 hours, read-out: Solubility
[3] = Metabolic stability in rat liver microsomes; format: in vitro ADME
[4] = tested on: C57 mouse CHF model; assay: In vivo efficacy on chronic heart failure in mice (coronary artery ligation, echocardiography), enalapril control; conditions: for Cardiac output per minute (CO), day 28 vs day 0: p<0.01 or p<0.05 (FIG. 6)
Protocol: C57 mouse coronary artery ligation method was used in this experiment to prepare the mouse CHF model. The differences in echocardiography, hemodynamics and histopathology of the model were observed after administration. Test substance: compound 2. Solvent: 0.3% sodium carboxymethyl cellulose. Dosage: 1 mg/kg, 3 mg/kg, 10 mg/kg, 30 mg/kg and 100 mg/kg. Route of administration: intragastric. Control drug: enalapril 2 mg/kg. Strain: C57 mouse; Age: 7 weeks; Weight: 18-20 g; Gender: Male; Grade: SPF C57 mouse CHF model was established by coronary artery ligation method in this experiment. The differences in echocardiography, hemodynamics and histopathology of the model were observed after administration. 5 dose groups were set for compound 2 in this experiment. Enalapril was selected as the positive control. Once daily for 28 consecutive days. The doses for each group was 1 mg/kg, 3 mg/kg, 10 mg/kg, 30 mg/kg and 100 mg/kg. Positive control group: Enalapril (2 mg/kg) was administered after CHF was established. The mice were anesthetized in a box filled with isoflurane. After the mice were anesthetized, the left 4th intercostal space was opened to expose the left atrial appendage and left ventricle. It can be seen that the left coronary artery runs downward from the middle of the left atrial appendage to the anterior wall of the left ventricle. The coronary artery is sutured at a high position about 1 mm from the lower border of the left atrial appendage. After ligation, the myocardium gradually changes from fleshy red to pale white, indicating myocardial infarction. The model is successfully established, and the chest is closed layer by layer. After the spontaneous breathing of the mice recovered, the mice were caged and reared in a day-night cycle with free access to water and food. After being reared for 30 days, the chronic heart failure model was detected by echocardiography, and the mice with successful chronic heart failure model were selected. Qualified CHF mice screened by echocardiography were randomly grouped. Mice were given compound 2 by intragastric administration once daily for 28 consecutive days. The body weight of mice was measured every week, and echocardiography was performed after 28 days of administration. After the […] anesthetized, 1 mm^3 tissue was taken from the hearts of 3 mice in each group, fixed with electron microscope fixative, and detected by transmission electron microscope to observe the ultrastructure of the heart. All remaining heart tissues were fixed with 10% formaldehyde, and stained with HE for histopathology to observe histopathological changes.

[5] = mice with heart failure, intragastric once daily 28 days, dose not stated

CC(C)(O)[C@@H]1CC[C@](C)([C@H]2[C@@H](O)C[C@@]3(C)[C@@H]4C[C@H](O)[C@H]5C(C)(C)C(F)(F)CC[C@@]56C[C@@]46CC[C@]23C)O1 [Compound 2, (2aR,3R,4S,5aS,5bS,7S,7aR,11aR,12aS)-9,9-difluoro-3-((2R,5S)-5-(2-hydroxypropan-2-yl)-2-methyltetrahydrofuran-2-yl)-2a,5a,8,8-tetramethyltetradecahydro-1H,12H-cyclopenta[a]cyclopropa[e]phenanthrene-4,7-diol]
AUC0-t ([1]; both sexes, all rats (♂ and ♀)): 1590 ± 585 ng·h/mL
AUC(0-inf) ([1]; both sexes, all rats (♂ and ♀)): 1660 ± 656 ng·h/mL
clearance ([1]; both sexes, all rats (♂ and ♀)): 23 mL/min/kg
half-life ([1]; both sexes, all rats (♂ and ♀)): 70.8 ± 24.6 min
concentration at 0.05 h ([1]; both sexes, all rats (♂ and ♀)): 1460 ± 232 ng/mL
MRT inf ([1]; both sexes, all rats (♂ and ♀)): 1.55 ± 0.59 h
Vd ([1]; both sexes, all rats (♂ and ♀)): 2.13 ± 0.38 L/kg
AUC0-t ([1]; female, rats ♀): 2120 ± 114 ng·h/mL
AUC(0-inf) ([1]; female, rats ♀): 2250 ± 206 ng·h/mL
clearance ([1]; female, rats ♀): 14.9 mL/min/kg
half-life ([1]; female, rats ♀): 88.2 min
concentration at 0.05 h ([1]; female, rats ♀): 1390 ± 250 ng/mL
MRT inf ([1]; female, rats ♀): 2.03 ± 0.41 h
Vd ([1]; female, rats ♀): 1.86 ± 0.348 L/kg
AUC0-t ([1]; male, rats ♂): 1060 ± 113 ng·h/mL
AUC(0-inf) ([1]; male, rats ♂): 1080 ± 106 ng·h/mL
clearance ([1]; male, rats ♂): 31 mL/min/kg
half-life ([1]; male, rats ♂): 54 min
concentration at 0.05 h ([1]; male, rats ♂): 1540 ± 233 ng/mL
MRT inf ([1]; male, rats ♂): 1.07 ± 0.09 h
Vd ([1]; male, rats ♂): 2.39 ± 0.168 L/kg
Solubility ([2]; FaSSIF (pH 6.5)): 15 µg/mL (≈ 29.4 µM)
Solubility ([2]; Water): 2 µg/mL (≈ 3.92 µM)
metabolic stability in rat liver microsomes ([3]; compared with compound 5 (cycloastragenol)): relatively stable; also recorded: more stable than cycloastragenol
half-life at 5 µM ([3]; liver microsomes, 5 μM compound, 37° C.): 518 min
Short axis shortening rate (FS %), day 28 vs day 0 ([4]; 10 mg/kg group, p<0.0005 (FIG. 7)): significant increase; also recorded: significant elevated
EF value, day 28 vs day 0 ([4]; 10 mg/kg group, p<0.0005, highest increase p<0.0001 (FIG. 5)): significantly increased
Cardiac output per minute (CO), day 28 vs day 0 ([4]; 10 mg/kg group): significantly increased
EF value, day 28 vs day 0 ([4]; 30 mg/kg group, p<0.0005 (FIG. 5)): significantly increased
Cardiac output per minute (CO), day 28 vs day 0 ([4]; 30 mg/kg group): significantly increased
Cardiac output per minute (CO), day 28 vs day 0 ([4]; 100 mg/kg group): significantly increased
CO per minute [4, 5]: significantly increased
ejection fraction (EF) [4, 5]: significantly increased
heart rate (HR) [4, 5]: without increasing
short-axis shortening rate (FS) [4, 5]: significantly increased
melting point: 189 to 192 °C
